Test results published in PubChem BioAssay (NCI).
Where “and” joins values, the source holds several entries; their conditions need not be identical. Equal values may be shown once.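 Interpolation was linear, between the two tested concentrations surrounding the appropriate level; five concentrations were tested over 48 hours in 96-well plates. The concentration for 50% growth inhibition is given as GI50. TGI marks complete inhibition of growth.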

Assays:
Assay in all cases: DTP human tumour cell line panel, 48 h
DU-145 prostate = test system: DU-145 prostate
EKVX NSCLC = test system: EKVX NSCLC
NCI-H522 lung = test system: NCI-H522 lung
UACC-257 melanoma = test system: UACC-257 melanoma
RPMI-8226 leukemia = test system: RPMI-8226 leukemia
NCI/ADR-RES ovarian = test system: NCI/ADR-RES ovarian
HCT-116 colon = test system: HCT-116 colon
OVCAR-5 ovarian = test system: OVCAR-5 ovarian
OVCAR-8 ovarian = test system: OVCAR-8 ovarian
CCRF-CEM leukemia = test system: CCRF-CEM leukemia

Structure (SMILES) | TGI (DU-145 prostate) | TGI (EKVX NSCLC) | TGI (NCI-H522 lung) | TGI (UACC-257 melanoma) | GI50 (RPMI-8226 leukemia) | TGI (RPMI-8226 leukemia) | GI50 (NCI/ADR-RES ovarian) | TGI (NCI/ADR-RES ovarian) | GI50 (HCT-116 colon) | TGI (HCT-116 colon) | TGI (OVCAR-5 ovarian) | GI50 (OVCAR-8 ovarian) | TGI (OVCAR-8 ovarian) | GI50 (CCRF-CEM leukemia) | TGI (CCRF-CEM leukemia) | GI50 (DU-145 prostate) | GI50 (EKVX NSCLC) | GI50 (NCI-H522 lung) | GI50 (UACC-257 melanoma) | GI50 (OVCAR-5 ovarian)
Nc1nc2[nH]cc(CCc3ccc(C(=O)N[C@@H](CCC(=O)O)C(=O)O)cc3)c2c(=O)[nH]1 | > 100 µM | > 100 µM | > 100 µM | > 100 µM | > 65.9 µM | > 100 µM | > 100 µM | > 100 µM | 0.127 µM | > 100 µM | > 100 µM | 0.154 µM | > 100 µM | 0.211 µM | > 100 µM | – | – | – | – | –
O=C1c2c(F)c(F)c(F)c(F)c2C(=O)N1c1ccc(F)cc1F | 23.4 µM | 35.9 µM | > 25 µM | 57.2 µM | 3.81 µM | 65.4 µM | 7.55 µM | 30.5 µM | 3.71 µM | 14.2 µM | 26.5 µM | 12.8 µM | 50.8 µM | 0.958 µM | 6.82 µM | 8 µM | 16.8 µM | 6.58 µM | 21.8 µM | 12.6 µM
O=C1CSC(=S)N1/N=C/c1ccc(Cl)c([N+](=O)[O-])c1 | > 100 µM | 76.9 µM | 36.8 µM | 62.8 µM | – | > 100 µM | – | 52.5 µM | – | 48.2 µM | > 100 µM | – | 92.2 µM | – | > 100 µM | – | – | – | – | –
O=C(Nc1cccc(C(F)(F)F)c1)Nc1cccc(C(F)(F)F)c1 | 12.4 µM | 7.88 µM | 4.32 µM | 4.95 µM | 0.382 µM | 5.6 µM | 0.651 µM | 4.84 µM | 0.462 µM | 2.76 µM | 14.8 µM | 1.06 µM | 10.4 µM | 0.721 µM | 10.8 µM | 0.92 µM | 0.983 µM | 1.2 µM | 1.31 µM | 3.24 µM
COC(=O)/C=C/c1cc(OC(C)=O)c2c(c1)[C@@H](C(=O)OC)[C@H](c1ccc(OC(C)=O)c(OC(C)=O)c1)O2 | – | > 94.3 µM | 2.13 µM | 56.2 µM | 0.049 µM | – | 0.0423 µM | 1.93 µM | 0.0485 µM | > 59.9 µM | > 100 µM | 0.0795 µM | > 88.3 µM | 0.039 µM | 34.4 µM | 0.0636 µM | 2.38 µM | 0.0348 µM | 1.45 µM | 0.95 µM
COC(=O)[C@]12CC[C@@H](C)[C@H](C)[C@@H]1C1=CC[C@@H]3[C@@]4(C)C[C@@H](O)[C@H](O)[C@@](C)(CO)[C@@H]4[C@H](O)C[C@@]3(C)[C@]1(C)CC2 | 31.8 µM | 31.4 µM | 43.3 µM | 35.8 µM | 5.18 µM | 31.3 µM | 15.5 µM | 35.1 µM | 11.1 µM | 26.4 µM | 36.4 µM | 17.7 µM | 41.1 µM | 7.77 µM | 36.9 µM | 16.4 µM | 13.4 µM | 20.9 µM | 16.8 µM | 17.9 µM
CN1CCN(C(=O)COc2ccc(C34CC5CC(CC(C5)C3)C4)cc2)CC1 | 55.7 µM | > 100 µM | 33.4 µM | 31.9 µM | 2.09 µM | 5.73 µM | 21.7 µM | 84.4 µM | 13.9 µM | 26.9 µM | 44.6 µM | 18.2 µM | 54.1 µM | 5.44 µM | 27.8 µM | 19 µM | 24.6 µM | 15 µM | 12.8 µM | 17.6 µM
NC(N)=NS(=O)(=O)c1ccc(N=Nc2c(O)c(C(=O)O)cc3ccccc23)cc1 | > 100 µM | > 100 µM | > 100 µM | > 100 µM | – | > 100 µM | – | > 100 µM | – | > 100 µM | > 100 µM | – | > 100 µM | – | > 100 µM | – | – | – | – | –
Br[Se]c1ccccn1 | 30.8 µM | 31.5 µM | 30.4 µM | 31.7 µM | – | 60.9 µM | – | 61.6 µM | – | 33 µM | 35.1 µM | – | 36 µM | – | > 100 µM | – | – | – | – | –
O=C(O)C(Cl)Cl | > 10000 µM | > 10000 µM | > 10000 µM | > 10000 µM | 3210 µM and > 9400 µM | > 10000 µM | 7660 µM and > 10000 µM | > 10000 µM | 6700 µM and > 10000 µM | > 10000 µM | > 10000 µM | > 10000 µM | > 10000 µM | 4920 µM and > 4680 µM | > 10000 µM | 5720 µM and > 10000 µM | > 10000 µM | 8040 µM and > 10000 µM | > 10000 µM | > 10000 µM
CCOC(=O)n1cc(C2=C(c3ccc(OC)c(OC)c3)COC2=O)c2ccccc21 | > 100 µM | > 100 µM | > 33.3 µM | > 100 µM | 0.0327 µM | 1.65 µM | 0.0415 µM | > 100 µM | 0.0482 µM | > 100 µM | > 100 µM | 0.0954 µM | > 100 µM | 0.0367 µM | > 100 µM | 0.0794 µM | 0.0938 µM | 0.0389 µM | 16.1 µM | 0.199 µM
CC(=O)OC1(C)N=NC2(CCCCC2)O1 (stereo not drawn) | > 100 µM | > 100 µM | > 100 µM | > 100 µM | – | > 100 µM | – | > 100 µM | – | > 100 µM | > 100 µM | – | > 100 µM | – | > 100 µM | – | – | – | – | –
CN(C)c1ccc(/C=N/NC(=S)Nc2ccccc2)cc1 | > 100 µM | > 100 µM | > 100 µM | > 100 µM | – | > 100 µM | – | > 100 µM | – | > 100 µM | > 100 µM | – | > 100 µM | – | > 100 µM | – | – | – | – | –
O=[N+]([O-])c1cc([N+](=O)[O-])c(C(F)(F)F)cc1NN=C(c1ccc(O)cc1)c1ccc(O)cc1 | 13.8 µM | 14.6 µM | 39.7 µM | 17.5 µM | 3.71 µM | 12.6 µM | 4.44 µM | 65.4 µM | 2.67 µM | 11.9 µM | 50 µM | 4.2 µM | > 100 µM | 3.71 µM | 14.4 µM | 3.79 µM | 2.75 µM | 3.82 µM | 4.29 µM | 11 µM
CC(C)[C@@H]1NC(=O)[C@]2(C)CSC(=N2)c2ccnc(c2)CNC(=O)C[C@@H](/C=C/CCS)OC1=O | > 100 µM | > 100 µM | 5.14 µM | 0.526 µM | 1.49 µM | > 27.7 µM | 2.46 µM | > 61.6 µM | 0.115 µM | 1.09 µM | > 100 µM | 0.128 µM | > 100 µM | 0.574 µM | > 100 µM | 0.231 µM | 0.234 µM | 0.249 µM | 0.0376 µM | 0.156 µM
O=C1OCC2=C1C(c1cccc(Br)c1)c1cc3c(cc1N2CCO)OCCO3 (stereo not drawn) | 0.752 µM | 48.7 µM | 0.0478 µM | 15.3 µM | 0.0714 µM | 14 µM | 0.0635 µM | 0.273 µM | 0.0595 µM | 2.07 µM | > 33.7 µM | 0.12 µM | 1.54 µM | 0.0763 µM | > 26.3 µM | 0.107 µM | 1.3 µM | 0.0116 µM | 0.0261 µM | 0.221 µM
C/C=C/[C@@H]1O[C@@H]2COC(=O)C2=C[C@@H]1O | 18.8 µM | 36.7 µM | > 29.1 µM | 36.9 µM | 2.55 µM | 7.18 µM | 25.9 µM | 60.5 µM | 2.06 µM | 8.79 µM | 37.1 µM | 23.3 µM | 51.8 µM | 2.94 µM | > 100 µM | 5.03 µM | 17.5 µM | 3.95 µM | 21 µM | 19.2 µM
C[C@@H]1CC[C@H]2C(C)(C)[C@H]3C[C@@]12CC[C@@]3(C)O | > 100 µM | > 100 µM | > 100 µM | > 100 µM | – | 53.6 µM | – | > 100 µM | – | > 100 µM | > 100 µM | – | > 100 µM | – | > 100 µM | – | – | – | – | –
NC(=S)N/N=C1\c2cc(Cl)ccc2-c2c1cc(Cl)cc2[N+](=O)[O-] | > 100 µM | 95.6 µM | 48.6 µM | > 100 µM | 3.44 µM | 20.5 µM | 4.76 µM | > 100 µM | 2.89 µM | 27.4 µM | > 100 µM | 4.62 µM | > 100 µM | 3.43 µM | > 100 µM | 10.8 µM | 4.65 µM | 4.11 µM | 6.56 µM | 11 µM
c1ccc(Nc2ncc(-c3ccccc3)o2)cc1 | > 25 µM | > 25 µM | > 25 µM | > 25 µM | > 25 µM | > 25 µM | > 25 µM | > 25 µM | 24.5 µM | > 25 µM | > 25 µM | > 25 µM | > 25 µM | > 25 µM | > 25 µM | > 25 µM | > 25 µM | > 25 µM | > 25 µM | > 25 µM
CCNC(=O)C#Cc1ccc2c(C(=Nc3ccc(CN(C)C)cc3)c3ccccc3)c(O)[nH]c2c1 | > 10 µM | > 10 µM | > 5.39 µM | 0.114 µM | 0.434 µM | 3.19 µM | 1.7 µM | > 10 µM | 0.0147 µM | 1.07 µM | 0.732 µM | 1.04 µM | > 10 µM | 0.00204 µM | 5.58 µM | 1.26 µM | 0.47 µM | 1.26 µM | 0.0216 µM | 0.0262 µM
